Data taken from patent US20050070510A1, “Substituted tetracycline compounds as synergistic antifungal agents” (Paratek Pharmaceuticals, Inc., priority 2001, published 2005).

Test system: COS-1 cells
Test: In vitro mammalian cytotoxicity assay (Resazurin)

Row | Structure (SMILES) | In Vitro Cytotoxicity
1 | CN(C)c1cc(NC(=O)NC(=O)c2ccccc2)c(O)c2c1C[C@@]1(N)C[C@@]3(N)[C@H](N(C)C)C(O)=C(C(N)=O)C(=O)[C@@]3(C#N)C(O)=C1C2=O [IK] | * (toxicities greater than >25 μg/ml are represented by *)
2 | CN(C)c1cc(NC(=O)Nc2cc(C(F)(F)F)cc(C(F)(F)F)c2)c(O)c2c1C[C@@]1(N)C[C@@]3(N)[C@H](N(C)C)C(O)=C(C(N)=O)C(=O)[C@@]3(C#N)C(O)=C1C2=O [IL] | ** (toxicities less than 25 μg/mL are represented by **)
3 | COc1ccc(CN(C)C)cc1-c1ccc(O)c2c1C[C@@]1(N)C[C@@]3(N)[C@H](N(C)C)C(O)=C(C(N)=O)C(=O)[C@@]3(C#N)C(O)=C1C2=O [IM] | * (toxicities greater than >25 μg/ml are represented by *)
4 | CN(C)[C@@H]1C(O)=C(C(N)=O)C(=O)[C@@]2(C#N)C(O)=C3C(=O)c4c(O)ccc(CCc5ccccc5)c4C[C@@]3(N)C[C@@]12N [IN] | ** (toxicities less than 25 μg/mL are represented by **)
5 | CN(C)c1cc(C#CCNS(C)(=O)=O)c(O)c2c1C[C@@]1(N)C[C@@]3(N)[C@H](N(C)C)C(O)=C(C(N)=O)C(=O)[C@@]3(C#N)C(O)=C1C2=O [IP] | * (toxicities greater than >25 μg/ml are represented by *)
6 | CN(C)[C@@H]1C(O)=C(C(N)=O)C(=O)[C@@]2(C#N)C(O)=C3C(=O)c4c(O)ccc(C#CCNS(C)(=O)=O)c4C[C@@]3(N)C[C@@]12N [IQ] | * (toxicities greater than >25 μg/ml are represented by *)
7 | CCc1cc(F)c(O)c2c1C[C@@]1(N)C[C@@]3(N)[C@H](N(C)C)C(O)=C(C(N)=O)C(=O)[C@@]3(C#N)C(O)=C1C2=O [IR] | ** (toxicities less than 25 μg/mL are represented by **)
8 | CN(C)[C@@H]1C(O)=C(C(N)=O)C(=O)[C@@]2(C#N)C(O)=C3C(=O)c4c(O)ccc(-c5cccc(C(N)=O)c5)c4C[C@@]3(N)C[C@@]12N [IS] | * (toxicities greater than >25 μg/ml are represented by *)
9 | CC(=O)Nc1ccc(C#Cc2ccc(O)c3c2C[C@@]2(N)C[C@@]4(N)[C@H](N(C)C)C(O)=C(C(N)=O)C(=O)[C@@]4(C#N)C(O)=C2C3=O)cc1 [IU] | * (toxicities greater than >25 μg/ml are represented by *)
10 | CN(C)[C@@H]1C(O)=C(C(N)=O)C(=O)[C@@]2(C#N)C(O)=C3C(=O)c4c(O)ccc(CCCNS(C)(=O)=O)c4C[C@@]3(N)C[C@@]12N [IV] | * (toxicities greater than >25 μg/ml are represented by *)
11 | CC(O)CCc1ccc(O)c2c1C[C@@]1(N)C[C@@]3(N)[C@H](N(C)C)C(O)=C(C(N)=O)C(=O)[C@@]3(C#N)C(O)=C1C2=O (stereo partly drawn) [IW] | * (toxicities greater than >25 μg/ml are represented by *)
12 | CN(C)[C@@H]1C(O)=C(C(N)=O)C(=O)[C@@]2(C#N)C(O)=C3C(=O)c4c(O)ccc(CCC5CCCCC5)c4C[C@@]3(N)C[C@@]12N [IX] | ** (toxicities less than 25 μg/mL are represented by **)
13 | CCc1cc(CNC(=O)c2cccnc2)c(O)c2c1C[C@@]1(N)C[C@@]3(N)[C@H](N(C)C)C(O)=C(C(N)=O)C(=O)[C@@]3(C#N)C(O)=C1C2=O [IY] | * (toxicities greater than >25 μg/ml are represented by *)
14 | CCc1cc(CN)c(O)c2c1C[C@@]1(N)C[C@@]3(N)[C@H](N(C)C)C(O)=C(C(N)=O)C(=O)[C@@]3(C#N)C(O)=C1C2=O [IZ] | * (toxicities greater than >25 μg/ml are represented by *)
15 | CN(C)[C@@H]1C(O)=C(C(N)=O)C(=O)[C@@]2(C#N)C(O)=C3C(=O)c4c(ccc(/C=C\C(=O)NC(C)(C)C)c4O)[C@H](N)[C@@]3(N)[C@H](O)[C@@]12N [JA] | * (toxicities greater than >25 μg/ml are represented by *)
16 | CN(C)[C@@H]1C(O)=C(C(N)=O)C(=O)[C@@]2(C#N)C(O)=C3C(=O)c4c(O)ccc(C5CCCC5)c4C[C@@]3(N)C[C@@]12N [JB] | ** (toxicities less than 25 μg/mL are represented by **)
17 | CN(C)[C@@H]1C(O)=C(C(N)=O)C(=O)[C@@]2(C#N)C(O)=C3C(=O)c4c(O)c(CNC(=O)c5cccnc5)cc(CCC5CCCCC5)c4C[C@@]3(N)C[C@@]12N [JC] | ** (toxicities less than 25 μg/mL are represented by **)
18 | CN(C)[C@@H]1C(O)=C(C(N)=O)C(=O)[C@@]2(C#N)C(O)=C3C(=O)c4c(O)ccc(/C=C/C(=O)OC(C)(C)C)c4C[C@@]3(N)C[C@@]12N [JD] | * (toxicities greater than >25 μg/ml are represented by *)
19 | CCCCCCc1ccc(O)c2c1C[C@@]1(N)C[C@@]3(N)[C@H](N(C)C)C(O)=C(C(N)=O)C(=O)[C@@]3(C#N)C(O)=C1C2=O [JE] | ** (toxicities less than 25 μg/mL are represented by **)
20 | COc1cccc(C#Cc2cc(N(C)C)c3c(c2O)C(=O)C2=C(O)[C@]4(C#N)C(=O)C(C(N)=O)=C(O)[C@@H](N(C)C)[C@]4(N)C[C@]2(N)C3)c1 [JF] | ** (toxicities less than 25 μg/mL are represented by **)
21 | CN(C)c1cc(C#Cc2ccc(N)cc2)c(O)c2c1C[C@@]1(N)C[C@@]3(N)[C@H](N(C)C)C(O)=C(C(N)=O)C(=O)[C@@]3(C#N)C(O)=C1C2=O [JG] | * (toxicities greater than >25 μg/ml are represented by *)

Row | Structure (SMILES) | In Vitro Cytotoxicity
22 | CN(C)c1cc(C#Cc2cccnc2)c(O)c2c1C[C@@]1(N)C[C@@]3(N)[C@H](N(C)C)C(O)=C(C(N)=O)C(=O)[C@@]3(C#N)C(O)=C1C2=O [JH] | ** (toxicities less than 25 μg/mL are represented by **)
23 | COC(=O)C#Cc1cc(N(C)C)c2c(c1O)C(=O)C1=C(O)[C@]3(C#N)C(=O)C(C(N)=O)=C(O)[C@@H](N(C)C)[C@]3(N)C[C@]1(N)C2 [JI] | * (toxicities greater than >25 μg/ml are represented by *)
24 | Cc1ccc(S(=O)(=O)NC(=O)C#Cc2cc(N(C)C)c3c(c2O)C(=O)C2=C(O)[C@]4(C#N)C(=O)C(C(N)=O)=C(O)[C@@H](N(C)C)[C@]4(N)C[C@]2(N)C3)cc1 [JJ] | * (toxicities greater than >25 μg/ml are represented by *)
25 | CN(C)[C@@H]1C(O)=C(C(N)=O)C(=O)[C@@]2(C#N)C(O)=C3C(=O)c4c(O)c(CN)cc(-c5cccc([N+](=O)O)c5)c4C[C@@]3(N)C[C@@]12N [JP] | * (toxicities greater than >25 μg/ml are represented by *)
26 | CN(C)[C@@H]1C(O)=C(C(N)=O)C(=O)[C@@]2(C#N)C(O)=C3C(=O)c4c(O)c(CN5C(=O)c6ccccc6C5=O)cc(-c5cccc([N+](=O)O)c5)c4C[C@@]3(N)C[C@@]12N [JQ] | ** (toxicities less than 25 μg/mL are represented by **)
27 | CN(C)[C@@H]1C(O)=C(C(N)=O)C(=O)[C@@]2(C#N)C(O)=C3C(=O)c4c(O)ccc(C(=O)O)c4C[C@@]3(N)C[C@@]12N [JR] | * (toxicities greater than >25 μg/ml are represented by *)
28 | CCCc1cc(CN)c(O)c2c1C[C@@]1(N)C[C@@]3(N)[C@H](N(C)C)C(O)=C(C(N)=O)C(=O)[C@@]3(C#N)C(O)=C1C2=O [JS] | * (toxicities greater than >25 μg/ml are represented by *)
29 | CN(C)[C@@H]1C(O)=C(C(N)=O)C(=O)[C@@]2(C#N)C(O)=C3C(=O)c4c(O)c(CN)cc(-c5ccc(I)cc5)c4C[C@@]3(N)C[C@@]12N [JT] | * (toxicities greater than >25 μg/ml are represented by *)
30 | CCCCCc1ccc(O)c2c1C[C@@]1(N)C[C@@]3(N)[C@H](N(C)C)C(O)=C(C(N)=O)C(=O)[C@@]3(C#N)C(O)=C1C2=O [JU] | ** (toxicities less than 25 μg/mL are represented by **)
31 | CCC#Cc1ccc(O)c2c1C[C@@]1(N)C[C@@]3(N)[C@H](N(C)C)C(O)=C(C(N)=O)C(=O)[C@@]3(C#N)C(O)=C1C2=O [JW] | ** (toxicities less than 25 μg/mL are represented by **)
32 | CN(C)c1cc(CCCNS(C)(=O)=O)c(O)c2c1C[C@@]1(N)C[C@@]3(N)[C@H](N(C)C)C(O)=C(C(N)=O)C(=O)[C@@]3(C#N)C(O)=C1C2=O [JX] | * (toxicities greater than >25 μg/ml are represented by *)
33 | CC(C)S(=O)(=O)NCC#Cc1cc(N(C)C)c2c(c1O)C(=O)C1=C(O)[C@]3(C#N)C(=O)C(C(N)=O)=C(O)[C@@H](N(C)C)[C@]3(N)C[C@]1(N)C2 [JY] | * (toxicities greater than >25 μg/ml are represented by *)
34 | CN(C)c1cc(-c2ccc(CN3CCCC3)cc2)c(O)c2c1C[C@@]1(N)C[C@@]3(N)[C@H](N(C)C)C(O)=C(C(N)=O)C(=O)[C@@]3(C#N)C(O)=C1C2=O [JZ] | ** (toxicities less than 25 μg/mL are represented by **)
35 | CCCC#Cc1ccc(O)c2c1C[C@@]1(N)C[C@@]3(N)[C@H](N(C)C)C(O)=C(C(N)=O)C(=O)[C@@]3(C#N)C(O)=C1C2=O [KA] | ** (toxicities less than 25 μg/mL are represented by **)
36 | CN(C)[C@@H]1C(O)=C(C(N)=O)C(=O)[C@@]2(C#N)C(O)=C3C(=O)c4c(O)c(CN)cc(-c5cccc([N+](=O)O)c5)c4C[C@@]3(N)C[C@@]12N [KB] | ** (toxicities less than 25 μg/mL are represented by **)
37 | CN(C)[C@@H]1C(O)=C(C(N)=O)C(=O)[C@@]2(C#N)C(O)=C3C(=O)c4c(O)c(CNC(=O)CCl)cc(-c5ccccc5)c4C[C@@]3(N)C[C@@]12N [KD] | ** (toxicities less than 25 μg/mL are represented by **)
38 | CCc1cc(C#CC2=CCCCC2)c(O)c2c1C[C@@]1(N)C[C@@]3(N)[C@H](N(C)C)C(O)=C(C(N)=O)C(=O)[C@@]3(C#N)C(O)=C1C2=O [KE] | ** (toxicities less than 25 μg/mL are represented by **)
39 | CN(C)c1cc(CCc2ccc(F)cc2)c(O)c2c1C[C@@]1(N)C[C@@]3(N)[C@H](N(C)C)C(O)=C(C(N)=O)C(=O)[C@@]3(C#N)C(O)=C1C2=O [KF] | ** (toxicities less than 25 μg/mL are represented by **)
40 | CN(C)c1ccc(O)c2c1C[C@@]1(N)C[C@@]3(N)[C@H](N(C)C)C(O)=C(C(=O)NCNC(=O)CCl)C(=O)[C@@]3(C#N)C(O)=C1C2=O [KG] | ** (toxicities less than 25 μg/mL are represented by **)
41 | CCOC(=O)Nc1cc(N(C)C)c2c(c1O)C(=O)C1=C(O)[C@]3(C#N)C(=O)C(C(N)=O)=C(O)[C@@H](N(C)C)[C@]3(N)C[C@]1(N)C2 [KH] | ** (toxicities less than 25 μg/mL are represented by **)
42 | CCCCOC(=O)Nc1cc(N(C)C)c2c(c1O)C(=O)C1=C(O)[C@]3(C#N)C(=O)C(C(N)=O)=C(O)[C@@H](N(C)C)[C@]3(N)C[C@]1(N)C2 [KI] | ** (toxicities less than 25 μg/mL are represented by **)
